Source: PubChem BioAssay (NCI)
Several values for one entry are separate records, joined by “and”; a condition that tells them apart may be missing. Identical values can stand only once.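 These data come from cells grown in 96-well plates and exposed to compound for 48 hours at five concentrations. Here, GI50 denotes the concentration required for 50% inhibition of growth. The concentration for full growth arrest is given as TGI.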

Key:
Experiment in all cases: growth of human tumour cells (NCI), 48 h
SNB-75 CNS = test system: SNB-75 CNS
M14 melanoma = test system: M14 melanoma
MCF7 breast = test system: MCF7 breast
HL-60(TB) leukemia = test system: HL-60(TB) leukemia
HT29 colon = test system: HT29 colon
EKVX NSCLC = test system: EKVX NSCLC
SK-MEL-5 melanoma = test system: SK-MEL-5 melanoma
T-47D breast = test system: T-47D breast
COLO 205 colon = test system: COLO 205 colon
NCI-H23 lung = test system: NCI-H23 lung

## CN(C)CCSCCO
SNB-75 CNS
  TGI: > 100 µM
M14 melanoma
  TGI: > 100 µM
MCF7 breast
  TGI: > 100 µM
HL-60(TB) leukemia
  TGI: > 100 µM
HT29 colon
  TGI: > 100 µM
EKVX NSCLC
  TGI: > 100 µM
SK-MEL-5 melanoma
  TGI: > 100 µM
T-47D breast
  TGI: > 100 µM
COLO 205 colon
  TGI: > 100 µM
NCI-H23 lung
  TGI: > 100 µM

## CCc1ccc2nccc(NCCCN(C)C)c2c1[N+](=O)[O-]
SNB-75 CNS
  TGI: > 100 µM
M14 melanoma
  TGI: 67.4 µM
MCF7 breast
  TGI: > 100 µM
HL-60(TB) leukemia
  TGI: > 100 µM
HT29 colon
  TGI: > 100 µM
EKVX NSCLC
  TGI: > 100 µM
SK-MEL-5 melanoma
  TGI: > 100 µM
T-47D breast
  TGI: > 100 µM
COLO 205 colon
  TGI: 94.1 µM
NCI-H23 lung
  TGI: > 100 µM

## COc1cccc(N=N/C(=N\NC(=O)c2cc(Br)ccc2O)c2ccc(N(CCC#N)CCC#N)cc2OC)c1
SNB-75 CNS
  GI50: 19.6 mg/L
  TGI: 69.5 mg/L
M14 melanoma
  GI50: 57.3 mg/L
  TGI: > 150 mg/L
MCF7 breast
  GI50: 43.7 mg/L
  TGI: > 150 mg/L
HL-60(TB) leukemia
  GI50: 15 mg/L
  TGI: 15 mg/L
HT29 colon
  GI50: 30 mg/L
  TGI: > 150 mg/L
EKVX NSCLC
  GI50: 99.9 mg/L
  TGI: > 150 mg/L
SK-MEL-5 melanoma
  GI50: 35.1 mg/L
  TGI: 97.1 mg/L
T-47D breast
  GI50: 64 mg/L
  TGI: > 150 mg/L
COLO 205 colon
  GI50: 33.1 mg/L
  TGI: 106 mg/L
NCI-H23 lung
  GI50: 68.5 mg/L
  TGI: > 150 mg/L

## CNC1=C(C(=O)OC)SC(c2ccccc2)(c2ccccc2)SC1
SNB-75 CNS
  GI50: 26.1 µM
  TGI: > 100 µM
M14 melanoma
  GI50: 7.12 µM
  TGI: 67.7 µM
MCF7 breast
  GI50: 11.6 µM
  TGI: > 100 µM
HL-60(TB) leukemia
  GI50: 12 µM
  TGI: 58.2 µM
HT29 colon
  GI50: 20.9 µM
  TGI: > 100 µM
EKVX NSCLC
  GI50: 36.1 µM
  TGI: > 100 µM
SK-MEL-5 melanoma
  GI50: 19.5 µM
  TGI: > 100 µM
T-47D breast
  GI50: 34.6 µM
  TGI: > 100 µM
COLO 205 colon
  GI50: 23.9 µM
  TGI: > 100 µM
NCI-H23 lung
  GI50: 17.5 µM
  TGI: > 100 µM

## Cc1cc(C)c(S(=O)(=O)N(CCc2cccc(Br)c2)Cc2ccc(-c3cccc(S(C)(=O)=O)c3)cc2)c(C)c1
SNB-75 CNS
  GI50: > 100 µM
  TGI: > 100 µM
M14 melanoma
  GI50: > 100 µM
  TGI: > 100 µM
MCF7 breast
  GI50: > 100 µM
  TGI: > 100 µM
HL-60(TB) leukemia
  GI50: > 100 µM
  TGI: > 100 µM
HT29 colon
  GI50: > 100 µM
  TGI: > 100 µM
EKVX NSCLC
  GI50: > 100 µM
  TGI: > 100 µM
SK-MEL-5 melanoma
  GI50: > 100 µM
  TGI: > 100 µM
T-47D breast
  GI50: > 100 µM
  TGI: > 100 µM
COLO 205 colon
  GI50: > 100 µM
  TGI: > 100 µM
NCI-H23 lung
  GI50: > 100 µM
  TGI: > 100 µM

## CCNNC(=O)[C@@H]1[C@H](c2cc(OC)c(OC)c(OC)c2)c2cc3c(cc2[C@H](O)[C@H]1CO)OCO3
SNB-75 CNS
  GI50: 0.442 µM
  TGI: > 100 µM
M14 melanoma
  GI50: 0.369 µM
  TGI: > 100 µM
MCF7 breast
  GI50: 0.36 µM
  TGI: > 100 µM
HL-60(TB) leukemia
  GI50: 0.277 µM
  TGI: 0.707 µM
HT29 colon
  GI50: 0.351 µM
  TGI: 13 µM
EKVX NSCLC
  GI50: 0.519 µM
  TGI: > 100 µM
SK-MEL-5 melanoma
  GI50: 0.236 µM
  TGI: 0.635 µM
T-47D breast
  GI50: > 100 µM
  TGI: > 100 µM
COLO 205 colon
  GI50: 0.266 µM
  TGI: 0.646 µM
NCI-H23 lung
  GI50: 0.372 µM
  TGI: > 100 µM

## Cc1ccc(Nc2cc(C)nc(NCCCNc3ccnc4cc(Cl)ccc34)n2)cc1
SNB-75 CNS
  GI50: 1.3 µM
  TGI: 2.56 µM
M14 melanoma
  GI50: 1.56 µM
  TGI: 3.33 µM
MCF7 breast
  GI50: 1.16 µM
  TGI: 2.72 µM
HL-60(TB) leukemia
  GI50: 1.84 µM
  TGI: 4.81 µM
HT29 colon
  GI50: 0.481 µM
  TGI: 2.06 µM
SK-MEL-5 melanoma
  GI50: 1.4 µM
  TGI: 2.71 µM
T-47D breast
  GI50: 1.75 µM
  TGI: 4.14 µM
COLO 205 colon
  GI50: 1.36 µM
  TGI: 2.77 µM
NCI-H23 lung
  GI50: 1.78 µM
  TGI: 3.63 µM

## C[C@@H](COCCC(=O)N1CCN(c2ncc(C(F)(F)F)cn2)CC1)Nc1cn[nH]c(=O)c1C(F)(F)F
SNB-75 CNS
  GI50: 47.8 µM
  TGI: > 100 µM
M14 melanoma
  GI50: 32.9 µM
  TGI: > 100 µM
MCF7 breast
  GI50: 31.2 µM
  TGI: > 100 µM
HL-60(TB) leukemia
  GI50: 16.1 µM
  TGI: > 100 µM
HT29 colon
  GI50: > 100 µM
  TGI: > 100 µM
EKVX NSCLC
  GI50: > 94 µM
  TGI: > 100 µM
SK-MEL-5 melanoma
  GI50: 42.3 µM
  TGI: > 100 µM
T-47D breast
  GI50: 33.1 µM
  TGI: > 100 µM
COLO 205 colon
  GI50: 98.6 µM
  TGI: > 100 µM
NCI-H23 lung
  GI50: 28.3 µM
  TGI: > 100 µM

## C=C1C(=O)OC2/C=C(\CO)CC/C=C(\CO)CC(OC(=O)C(C)C)C12 (centres undefined)
SNB-75 CNS
  TGI: 32.2 µM
M14 melanoma
  TGI: 19.9 µM
MCF7 breast
  TGI: 8.85 µM
HL-60(TB) leukemia
  TGI: > 24.8 µM
HT29 colon
  TGI: 30 µM
EKVX NSCLC
  TGI: 38.8 µM
SK-MEL-5 melanoma
  TGI: 36 µM
T-47D breast
  TGI: 24.8 µM
COLO 205 colon
  TGI: 4.18 µM
NCI-H23 lung
  TGI: 38.5 µM

## CCOC(=O)C(C(=O)OCC)C(=O)c1ccccc1C(=O)c1ccccc1
SNB-75 CNS
  TGI: > 100 µM
M14 melanoma
  TGI: > 100 µM
MCF7 breast
  TGI: > 100 µM
HL-60(TB) leukemia
  TGI: > 100 µM
HT29 colon
  TGI: > 100 µM
EKVX NSCLC
  TGI: 96.7 µM
SK-MEL-5 melanoma
  TGI: > 100 µM
T-47D breast
  TGI: > 100 µM
COLO 205 colon
  TGI: > 100 µM
NCI-H23 lung
  TGI: > 100 µM

## CC(C)C[C@H](NC(=O)[C@@H](NC(=O)c1cccc(-c2ccccc2)n1)[C@@H](C)O)B(O)O
SNB-75 CNS
  GI50: 0.0144 µM and 0.0105 µM
  TGI: 0.0454 µM and 0.0308 µM
M14 melanoma
  TGI: 0.0207 µM
MCF7 breast
  GI50: 0.00425 µM
  TGI: 36.8 µM
HL-60(TB) leukemia
  GI50: 0.00379 µM and 0.0101 µM
  TGI: 0.162 µM and 0.0287 µM
HT29 colon
  GI50: 0.00396 µM
  TGI: 0.0233 µM and 0.046 µM
SK-MEL-5 melanoma
  GI50: 0.00421 µM
  TGI: 0.0177 µM and < 0.0114 µM
T-47D breast
  GI50: 0.00506 µM
  TGI: 0.0231 µM
COLO 205 colon
  GI50: 0.00813 µM and < 0.0126 µM
  TGI: 3.3 µM
NCI-H23 lung
  GI50: 0.00633 µM

## N#Cc1nc2c(S(=O)(=O)c3ccccc3)c(N)n(Cc3ccc(Cl)cc3)c2nc1C#N
M14 melanoma
  GI50: 20.9 µM
  TGI: > 50 µM
MCF7 breast
  GI50: 7.38 µM
  TGI: > 50 µM
HL-60(TB) leukemia
  GI50: 47.3 µM
  TGI: > 50 µM
EKVX NSCLC
  GI50: 19.1 µM
  TGI: > 50 µM
SK-MEL-5 melanoma
  GI50: 11.5 µM
  TGI: > 50 µM
T-47D breast
  GI50: 15.5 µM
  TGI: 46.4 µM
COLO 205 colon
  GI50: 17.8 µM
  TGI: > 50 µM
NCI-H23 lung
  GI50: 6.46 µM
  TGI: 38.6 µM

## Nc1c(C(=O)N/N=C/c2ccc(-c3cc(Cl)c(Cl)cc3Cl)o2)cnn1-c1ccnc2c(C(F)(F)F)cccc12
SNB-75 CNS
  GI50: 4.01 µM
  TGI: 53 µM
M14 melanoma
  GI50: 5.28 µM
  TGI: > 100 µM
MCF7 breast
  GI50: 3.42 µM
  TGI: > 100 µM
HL-60(TB) leukemia
  GI50: 3.18 µM
  TGI: > 100 µM
HT29 colon
  GI50: 2.73 µM
  TGI: 28 µM
EKVX NSCLC
  GI50: 3.09 µM
  TGI: 49.1 µM
SK-MEL-5 melanoma
  GI50: 3.74 µM
  TGI: 14.6 µM
T-47D breast
  GI50: 2.93 µM
  TGI: > 100 µM
COLO 205 colon
  GI50: 2.57 µM
  TGI: 5.78 µM
NCI-H23 lung
  GI50: 3.32 µM
  TGI: 47.2 µM

## C=C1C(OC/C=C/COC2O[C@@H]3O[C@@]4(C)CC[C@H]5[C@H](C)CC[C@@H](C2=C)[C@@]35OO4)O[C@@H]2O[C@@]3(C)CC[C@H]4[C@H](C)CC[C@@H]1[C@@]24OO3 (some centres undefined)
SNB-75 CNS
  GI50: 7.99 µM
  TGI: 31.1 µM
M14 melanoma
  GI50: 10.7 µM
  TGI: 27.5 µM
MCF7 breast
  GI50: 0.0801 µM
  TGI: 16.2 µM
HL-60(TB) leukemia
  TGI: 47.1 µM
HT29 colon
  GI50: 0.0438 µM
  TGI: > 49.2 µM
EKVX NSCLC
  GI50: 11.5 µM
  TGI: 31.9 µM
SK-MEL-5 melanoma
  GI50: 3.58 µM
  TGI: 27.3 µM
T-47D breast
  GI50: 0.0158 µM
  TGI: 21.2 µM
COLO 205 colon
  GI50: 0.226 µM
  TGI: 13.6 µM
NCI-H23 lung
  GI50: 0.0708 µM
  TGI: 14.2 µM
